The values below come from patent US9913811B2, “Hydroxynaphthoquinone compounds for treatment of non-small cell lung cancer” (Macau University of Science and Technology, priority 2016, dated 2018).

What all share (format): cell-based
In one series the target is T1, EGFR (Homo sapiens, UniProt P00533, L858R/T790M).
T1 construct: H1975 cells were planted on 6-well plate, allowed to attach for 24 h, and treated; host or cells: H1975 NSCLC adenocarcinoma cells
Briefly: Western blot of EGFR phosphorylation, H1975. The following applies: H1975 cells, 1, 2, 3, 4 μM, 2 h. The protocol:
H1975 cells were planted on 6-well plate, allowed to attach for 24 h, and treated with the various concentrations of the compound of Formula (Ic) for 2 h. Cells were washed twice with cold PBS then lysed in RIPA lysis buffer containing protease and phosphatase inhibitors. Protein concentration of the cell lysates was measured using the Bio-Rad protein Assay kit (Bio-Rad, 7 Philadelphia, Pa., USA). After equalizing the protein concentrations of the samples, 5× laemmli buffer was added and the samples were boiled at 100° C. for 5 min. Equal amounts of protein samples (30 μg) were subjected to SDS-PAGE of a 10% gel. The separated proteins were transferred to a nitrocellulose (NC) membrane, which was then exposed to 5% non-fat dried milk in TBS containing 0.1% Tween (0.1% TBST) for 1 h at room temperature, followed by overnight incubation at 4° C. with primary antibodies. After washing three times by TBST (5 mins/time), the membranes were incubated for 1 h at room temperature with the secondary fluorescent antibodies (1:10000 dilutions) to rabbit or mouse. The signal intensity of the membranes was detected by an LI-COR Odessy scanner (Belfast, Me., USA). Actin was used as the loading control for normalization.
(A western blot detects proteins with antibodies after separation by electrophoresis.)

For series [1], the system named is H1650 cells. Briefly: Annexin-V/PI apoptosis assay by flow cytometry, H1650. The protocol:
(§1) Apoptosis assay was performed on gefitinib-resistant H1650 and H1975 cells. The cells (1.0×10^5 cells/well) were allowed to attach to a 6-well plate for 24 h, and the cells were treated with the various concentrations of the compound of Formula (IIa) for additional 24 h. At the end of incubation, the cells were harvested by trypsinization and washed twice with ice-cold PBS. After centrifugation and removal of the supernatants, cell pellets were resuspended in 100 μL 1×Annexin-binding buffer, 2 μL Annexin-V FITC and 2 μL PI (100 μg/ml) were added and incubated in the dark at room temperature for 15 min before further addition of 400 μL of 1×Annexin-binding buffer. The stained cells were analyzed quantitatively using a flow cytometer (BD Biosciences, San Jose, Calif., USA). Data were analyzed by Flow Jo software. FIG. 2A to 2E show fluorescence images of H1650 cells and FIG. 3A to 3E show fluorescence images of H1975 cells having been treated with the compound of Formula (IIa) at 1 μM, 2 μM, 3 μM and 4 μM; and DMSO (control, negative control).
(§2) Apoptosis assay and analysis with flow cytometer was performed as described in Example 1B with H1650 and H1975 cells and treatment with 4 μM of the compound of Formula (IIa) for 30 min in the presence or absence of N-acetylcystein (NAC) or treatment with DMSO (control, negative control). […]
In general terms: Flow cytometry measures light scatter and fluorescence of single cells or particles in a stream.

In series [2] the test system is H1650 cells. Briefly: ROS generation, H1650. As to conditions: 4 μM, 30 min treatment. The protocol:
(§3) Apoptosis assay and analysis with flow cytometer was performed as described in Example 1B with H1650 and H1975 cells and treatment with 4 μM of the compound of Formula (IIa) for 30 min in the presence or absence of N-acetylcystein (NAC) or treatment with DMSO (control, negative control). FIG. 4A to 4D show fluorescence images of H1650 cells and FIG. 5A to 5D show fluorescence images of H1975 cells.
(§4) ROS generation was considered as the direct cause of apoptosis induced by the compound of Formula (IIa). After 30 min treatment of the H1650 and H1975 cells, the intensity of ROS increased more than 10-fold.

For a further series, the system named is CCD-19LU. Briefly: MTT cytotoxicity assay, non-cancerous lung fibroblast cells. As to conditions: 24 h treatment. The protocol:
To show the highly cytotoxic properties of the present compound of Formula (IIa), H1650, HCC827 and H1975 NSCLC cells and non-cancerous lung fibroblast cells (CCD-19LU) were treated with the compound of Formula (IIa) and respective effects were observed. H1650 cells are adenocarcinoma cells harboring an E746-A750del deletion in exon 19 and other driver mutation genes which lead to a resistance against gefitinib. HCC827 cells are adenocarcinoma cells harboring high level EGFR amplification and an E746-A750del deletion in exon 19 without gefitinib-resistance. H1975 cells are adenocarcinoma cells harboring L858R substitution in exon 21 and a T790M substitution in exon 20 which is directly associated with resistance against gefitinib. The cells were obtained from the American Type Culture Collection (ATCC) and cultured in environment of 5% CO2 at 37° C. in RPMI-1640 medium supplemented with 10% fetal bovine serum (FBS), 100 units/mL penicillin, and 100 μg/mL streptomycin. The compound of Formula (IIa) was dissolved in DMSO. […] The absorbance was measured at 570 nm by a microplate reader (Tecan, Morrisville, N.C., USA).
The cell viability was calculated relative to untreated controls, with results based on at least three independent experiments.
(In general: Tetrazolium assays rely on reduction of a dye to a coloured formazan, in cell work by metabolically active cells.)

Series [3] deals with cleaved Caspase-3 and cleaved PARP in H1650 cells. Briefly: Western blot of cleaved caspase-3 and cleaved PARP, H1650. The following applies: 24 h. The protocol:
(§5) The H1650 or H1975 cells were planted on 6-well plates, allowed to attach for 24 h, and treated with 4 μM of the compound of Formula (IIa) with or without NAC (10 mM) for 24 h. Cells were washed twice with cold PBS then lysed in RIPA lysis buffer containing protease and phosphatase inhibitors. Protein concentration of the cell lysates was measured using the Bio-Rad protein Assay kit (Bio-Rad, 7 Philadelphia, Pa., USA). After equalizing the protein concentrations of the samples, 5× laemmli buffer was added and the samples were boiled at 100° C. for 5 min. Equal amounts of protein samples (30 μg) were subjected to SDS-PAGE of a 10% gel. The separated proteins were transferred to a nitrocellulose (NC) membrane, which was then exposed to 5% non-fat dried milk in TBS containing 0.1% Tween (0.1% TBST) for 1 h at room temperature, followed by overnight incubation at 4° C. with primary antibodies. After washing three times by TBST (5 mins/time), the membranes were incubated for 1 h at room temperature with secondary fluorescent antibodies (1:10000 dilutions) to rabbit or mouse. The signal intensity of the membranes was detected by an LI-COR Odessy scanner (Belfast, Me., USA).

Series [4] concerns H1975 cells. Briefly: ROS generation, H1975. As to conditions: 4 μM, 30 min treatment. As for the experimental part:
as §3, §4

Series [5] deals with H1975 cells. Briefly: Annexin-V/PI apoptosis assay by flow cytometry, H1975. As for the experimental part: as §1, §2
In series [6] the test system is cleaved Caspase-3 and cleaved PARP in H1975 cells. Briefly: Western blot of cleaved caspase-3 and cleaved PARP, H1975. As to conditions: 24 h. As for the experimental part:
as §5

[7] abbreviates: 4 μM Formula (IIa) with 10 mM NAC.

As to `CC(C)=CC[C@@H](O)C1=CC(=O)c2c(O)ccc(O)c2C1=O` [Formula (IIa), shikonin], the “EGFR phosphorylation (tyrosine 1068, 1173, 1045)” value on EGFR is on record as “suppress EGFR phosphorylation”. The induction of apoptosis entry in the series on H1650 cells [1] (H1650 cells, 1, 2, 3, 4 μM, 24 h) was “significantly induced apoptosis”; in the series with H1975 cells [5] (H1975 cells, 1, 2, 3, 4 μM, 24 h), “significantly induced apoptosis”. Also, the “increase of intensity of ROS” value in the series on H1650 cells [2] and with H1975 cells [4] was “more than 10 fold” each time. Further, in the series with CCD-19LU, the “cytotoxicity on non-cancerous lung fibroblast cells compared with NSCLC cells” value is on record as “much lower cytotoxicity”. Moreover, the “cleaved Caspase-3 and cleaved PARP expression” value is “increase in cleaved Caspase-3 and cleaved Poly(ADP-ribose) Polymerase (PARP)” in series [3] (4 μM); “increase in cleaved Caspase-3 and cleaved Poly(ADP-ribose) Polymerase (PARP)” in series [6] (4 μM).
For the compound `CC(=O)N[C@@H](CS)C(=O)O` [NAC, N-acetylcystein, reference compound], the “effect of NAC on apoptosis induced by the compound of Formula (IIa)” value was “completely blocked the apoptosis” in the series with H1650 cells [1] (H1650 cells, 4 μM Formula (IIa) in presence of NAC) and “completely blocked the apoptosis” with H1975 cells [5] (H1975 cells, 4 μM Formula (IIa) in presence of NAC). The “effect of NAC on apoptosis (cleaved Caspase-3, cleaved PARP) induced by Formula (IIa)” value in series [3] (setting [7]) and in series [6] (setting [7]) was “blocked” each time.
